One data set deals with human NAMPT (Homo sapiens (Human), UniProt P43490). The experiment in a line: NMN fluorescence biochemical assay (human recombinant NAMPT enzyme assay). A digest of the protocol: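 Activation of recombinant human NAMPT (6 nM) was tested with 2.5 mM ATP, 20 μM PRPP and 150 μM nicotinamide in 50 mM HEPES pH 7.2 for 60 min at ambient temperature. NMN was derivatized with acetophenone/KOH/formic acid and read by fluorescence (355/460 nm) after 40 min.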

The test system of data set [1] is MDCK-MDR1 cells (P-gp, MDR1). Description: MDR1-MDCK bidirectional permeability assay. The following applies: for PappAB: A to B.
Protocol: (§1) A bidirectional permeability assay using Madin Darby canine kidney cells expressing multi-drug resistance gene 1 (MDCK-MDR1) is routinely used to evaluate discovery compounds' BBB permeability and drug efflux toward the advancement of discovery compounds with brain penetration.
(§2) MDCK-MDR1 Cells (NIH cell line) were obtained from the National Institutes of Health. […] Cell culture medium was replaced every other day, beginning no later than 24 hours after the initial plating. […] The dosing solution concentration was 1 μM for the test article in the assay buffer. Cell monolayers were dosed on the apical side (A-to-B) or basolateral side (B-to-A) and incubated at 37° C. under an atmosphere of 5% CO2 in a humidified incubator. Samples were taken from the donor and receiver chambers at 120 minutes. Each determination was performed in duplicate. After the 120 min transport period, the flux of lucifer yellow was also measured for each monolayer to ensure no damage was inflicted to the cell monolayers during the transport period. All samples were assayed by LC-MS/MS (Waters XSelect HSS T3 C18, 2.5 m, 2.1×50 mm) using electrospray ionization with 0.1% formic acid in water (mobile phase A) and 0.1% formic acid in acetonitrile (mobile phase B) as mobile phases. The apparent permeability coefficient (Papp), in units of cm per second, was calculated for MDCK-MDR1 Cells (NIH cell line) drug transport assays using the following equation:
(§3) Where VA is the volume (in mL) in the acceptor well, Area is the surface area of the membrane (0.143 cm^2 for Transwell-96 Well Permeable Supports), and time is the total transport time in seconds.
(§4) The leakage of Lucifer Yellow (LY), in unit of percentage (%), can be calculated using the following equation:
(§5) LY leakage of <1% is acceptable to indicate the well-qualified MDCK-MDR1(NIH) monolayer.
For a further data set, the system named is P-gp (MDR1). Description: MDR1-MDCK bidirectional permeability assay. The following applies: dog, MDCK-MDR1, pH 7.4, Efflux ratio.

“And” between values parts separate entries of the source, which are not always exact repeats. Equal values may be shown once.

human NAMPT, sequence (P43490 whole entry): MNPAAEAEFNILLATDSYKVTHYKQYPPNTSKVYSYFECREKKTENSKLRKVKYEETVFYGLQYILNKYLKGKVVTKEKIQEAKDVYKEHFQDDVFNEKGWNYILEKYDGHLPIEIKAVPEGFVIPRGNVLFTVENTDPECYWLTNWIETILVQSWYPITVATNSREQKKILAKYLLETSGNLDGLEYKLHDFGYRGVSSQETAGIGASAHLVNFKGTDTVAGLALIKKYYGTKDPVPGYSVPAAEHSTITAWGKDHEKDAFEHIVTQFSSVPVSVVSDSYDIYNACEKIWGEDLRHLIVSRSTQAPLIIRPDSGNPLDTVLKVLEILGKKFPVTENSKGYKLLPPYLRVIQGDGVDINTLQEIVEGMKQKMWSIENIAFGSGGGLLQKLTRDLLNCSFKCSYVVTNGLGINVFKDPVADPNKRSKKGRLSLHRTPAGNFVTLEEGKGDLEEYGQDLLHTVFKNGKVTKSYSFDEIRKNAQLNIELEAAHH
Protocol for P-gp (MDR1): as §1, §2, §3, §4, §5

Take `CC(=O)N1CCC(c2ccc(NC(=O)OCc3cnco3)cc2)CC1` [Compound 8, 1,3-oxazol-5-ylmethyl N-[4-(1-acetylpiperidin-4-yl)phenyl]carbamate]: on human NAMPT, the “AC1.4 Human” value was found to be 0.14 µM and the half-maximal effective concentration (EC50) was 32.6 µM. The PappAB in data set [1] was 9.77. Further, the efflux ratio at 120 min, 1 μM with P-gp (MDR1) is 5.41.
In the same order, the values of `COC(=O)N1CCC(Cc2ccc(NC(=O)OCc3ccncc3)cc2)CC1` [Compound 23, methyl 4-(4-(((pyridin-4-ylmethoxy)carbonyl)amino)benzyl)piperidine-1-carboxylate] are 0.32 µM, 2.76 µM, 6.30 and 2.
In the same order, the values of `O=C(Nc1ccc(CCC2CCN(C3COC3)CC2)cc1)OCc1cnco1` [Compound 132, oxazol-5-ylmethyl (4-(2-(1-(oxetan-3-yl)piperidin-4-yl)ethyl)phenyl)carbamate] are 1.06 µM, 41.1 µM, 13.54 and 2.26.
With `CC(=O)N1CCC(Cc2ccc(NC(=O)OCc3ccc(Cl)cc3)cc2)CC1` [Compound 40, 4-chlorobenzyl (4-((1-acetylpiperidin-4-yl)methyl)phenyl)carbamate], at human NAMPT, the “AC1.4 Human” value turned out to be 0.43 µM and the EC50 came out at 2.4 µM. In data set [1], the Efflux ratio was 1.9; the PappAB is 3.38 and 3.4. The efflux ratio at 120 min, 1 μM in the data set with P-gp (MDR1) stood at 1.93.
As to `O=C(Nc1ccc(CC2CCN(CC(F)(F)F)CC2)cc1)OCc1cnco1` [Compound 70, oxazol-5-ylmethyl (4-((1-(2,2,2-trifluoroethyl)piperidin-4-yl)methyl)phenyl)carbamate], on human NAMPT, the “AC1.4 Human” value came out at 0.61 µM and the EC50 came out at 22.9 µM. Moreover, the PappAB in data set [1] is 9.10. The efflux ratio at 120 min, 1 μM in the data set with P-gp (MDR1) was 1.04.
In the same order, the values of `O=C(Nc1ccc(CN2CCC[C@@H]2c2cccnc2)cc1)OCc1ccc(CO)cc1` [Compound 5, [4-(hydroxymethyl)phenyl]methyl N-(4-{[(2R)-2-(pyridin-3-yl)pyrrolidin-1-yl]methyl}phenyl)carbamate] are 0.07 µM, 0.29 µM, 5.32 and 7.02.
Regarding `O=C(Nc1ccc(CC2CCN(CC(F)F)CC2)cc1)OCc1cnco1` [Compound 59, oxazol-5-ylmethyl (4-((1-(2,2-difluoroethyl)piperidin-4-yl)methyl)phenyl)carbamate], on human NAMPT, the “AC1.4 Human” value is 0.56 µM and the 50% effective concentration (EC50) is 48.9 µM. Also, the PappAB in data set [1] is given as 13.26. For the same compound, the efflux ratio at 120 min, 1 μM with P-gp (MDR1) was 1.11.
Taken in the same sequence, the figures for `CN(C)C(=O)N1CCC(CCc2ccc(NC(=O)OCc3cnco3)cc2)CC1` [Compound 32, oxazol-5-ylmethyl (4-(2-(1-(dimethylcarbamoyl)piperidin-4-yl)ethyl)phenyl)carbamate] were 0.38 µM, 21 µM, 5.57 and 3.32.
Turning to `O=C(Nc1ccc(CC2CCN(C3COC3)CC2)cc1)OCc1ccc(Cl)cc1` [Compound 43, 4-chlorobenzyl (4-((1-(oxetan-3-yl)piperidin-4-yl)methyl)phenyl)carbamate], at human NAMPT, the “AC1.4 Human” value stood at 0.45 µM and the EC50 came to 4.56 µM. The PappAB in data set [1] was 5.39 and 5.4. For the same compound, the efflux ratio at 120 min, 1 μM in the data set on P-gp (MDR1) is 0.92.
For `Cc1ccc(C(=O)NCc2ccc(NC(=O)OCc3ccc(Cl)cc3)cc2)cn1` [Compound 21, (4-chlorophenyl)methyl N-(4-{[(6-methylpyridin-3-yl)formamido]methyl}phenyl)carbamate], on human NAMPT, the “AC1.4 Human” value worked out at 0.30 µM and the EC50 was 2 µM. Also, the PappAB in data set [1] was found to be 2.79. In addition, in the data set on P-gp (MDR1), the efflux ratio at 120 min, 1 μM came to 3.74.
Taken in the same sequence, the figures for `O=C(Nc1ccc(COC2CCN(C3COC3)CC2)cc1)OCc1ccc(Cl)cc1` [Compound 232, 4-chlorobenzyl (4-(((1-(oxetan-3-yl)piperidin-4-yl)oxy)methyl)phenyl)carbamate] were 2.17 µM, 20.8 µM, 9.8 and 1.5.
In data set [1], `O=C(NCc1ccc(Cl)cc1)Nc1ccc(CC2CCN(C3COC3)CC2)cc1` [Comparator 1, 1-(4-chlorobenzyl)-3-(4-((1-(oxetan-3-yl)piperidin-4-yl)methyl)phenyl)urea, reference compound] gave a PappAB of 1.85. Besides, the efflux ratio at 120 min, 1 μM in the data set with P-gp (MDR1) was 14.7.
With `O=C(Nc1ccc(CC(=O)N2CCC(F)(F)CC2)cc1)OCc1ccc(Cl)cc1` [Compound 274, (4-chlorophenyl)methyl N-{4-[2-(4,4-difluoropiperidin-1-yl)-2-oxoethyl]phenyl}carbamate], on human NAMPT, the “AC1.4 Human” value worked out at 3.32 µM and the EC50 was 6.15 µM.
Taken in the same sequence, the figures for `Cc1nc(C)c(C(=O)N(C)Cc2ccc(NC(=O)OCc3ccc(Cl)cc3)cc2)o1` [Compound 182, (4-chlorophenyl)methyl N-(4-{[1-(2,4-dimethyl-1,3-oxazol-5-yl)-N-methylformamido]methyl}phenyl)carbamate] were 1.54 µM and 11 µM.
Taken in the same sequence, the figures for `CCc1cc(C(=O)N[C@@H](C)c2ccc(NC(=O)OCc3ccc(Cl)cc3)cc2)n(C)n1` [Compound 137, (4-chlorophenyl)methyl N-{4-[(1S)-1-[(5-ethyl-2-methylpyrazol-3-yl)formamido]ethyl]phenyl}carbamate] were 1.11 µM and 3.83 µM.
In the same order, the values of `CN1CC(C(=O)NCc2ccc(NC(=O)OCc3ccc(Cl)cc3)cc2)CC1=O` (centres unmarked) [Compound 277, (4-chlorophenyl)methyl N-(4-{[(1-methyl-5-oxopyrrolidin-3-yl)formamido]methyl}phenyl)carbamate] are 3.36 µM and 39.9 µM.
Consider `O=C(Nc1ccc(CNC(=O)N2CCC(F)(F)CC2)cc1)OCc1ccc(Cl)cc1` [Compound 309, (4-chlorophenyl)methyl N-{4-[(4,4-difluoropiperidine-1-carbonylamino)methyl]phenyl}carbamate], for which, on human NAMPT, the “AC1.4 Human” value worked out at 5.19 µM and the EC50 stood at 14.9 µM.
On to `CCC(=O)N1CCC(c2ccc(NC(=O)OCc3cnco3)cc2F)CC1` [Compound 412, oxazol-5-ylmethyl (3-fluoro-4-(1-propionylpiperidin-4-yl)phenyl)carbamate], for which, on human NAMPT, the “AC1.4 Human” value was found to be 0.05 µM and the EC50 stood at 48.3 µM.
Taken in the same sequence, the figures for `O=C(Nc1ccc(CN2CCN(c3ccccn3)CC2)cc1)OCc1ccc(Cl)cc1` [Compound 29, (4-chlorophenyl)methyl N-(4-{[4-(pyridin-2-yl)piperazin-1-yl]methyl}phenyl)carbamate] were 0.37 µM and 1.51 µM.
For `CN(C1COC1)S(=O)(=O)c1ccc(NC(=O)OCc2ccc(Cl)cc2)cc1` [Compound 352, 4-chlorobenzyl (4-(N-methyl-N-(oxetan-3-yl)sulfamoyl)phenyl)carbamate], on human NAMPT, the “AC1.4 Human” value was 22.88 µM and the concentration giving a half-maximal response (EC50) is 46.3 µM.
Taken in the same sequence, the figures for `Cc1nocc1C(=O)N(C)Cc1ccc(NC(=O)OCc2ccc(Cl)cc2)cc1` [Compound 108, (4-chlorophenyl)methyl N-(4-{[N-methyl-1-(3-methyl-1,2-oxazol-4-yl)formamido]methyl}phenyl)carbamate] were 0.89 µM and 8.17 µM.
As to `Cc1coc(C(=O)N(C)Cc2ccc(NC(=O)OCc3ccc(Cl)cc3)cc2)n1` [Compound 155, (4-chlorophenyl)methyl N-(4-{[N-methyl-1-(4-methyl-1,3-oxazol-2-yl)formamido]methyl}phenyl)carbamate], on human NAMPT, the “AC1.4 Human” value stood at 1.31 µM and the EC50 was found to be 5.8 µM.
In the same order, the values of `Cc1cc(C(=O)NCc2ccc(NC(=O)OCc3ccc(Cl)cc3)cc2)n(C)n1` [Compound 225, (4-chlorophenyl)methyl N-(4-{[(2,5-dimethylpyrazol-3-yl)formamido]methyl}phenyl)carbamate] are 2.08 µM and 9.1 µM.
In the same order, the values of `COC1CCN(C(=O)NCc2ccc(NC(=O)OCc3ccc(Cl)cc3)cc2)CC1` [Compound 184, (4-chlorophenyl)methyl N-{4-[(4-methoxypiperidine-1-carbonylamino)methyl]phenyl}carbamate] are 1.58 µM and 14.9 µM.
Taken in the same sequence, the figures for `Cc1nn(C)c(C(=O)N(C)Cc2ccc(NC(=O)OCc3ccc(Cl)cc3)cc2)c1F` [Compound 188, (4-chlorophenyl)methyl N-(4-{[1-(4-fluoro-2,5-dimethylpyrazol-3-yl)-N-methylformamido]methyl}phenyl)carbamate] were 1.62 µM and 6.85 µM.
With `O=C(Nc1ccc(CC2C3CC2CN(C2COC2)C3)cc1)OCc1cnco1` (centres unmarked) [Compound 439, oxazol-5-ylmethyl (4-((3-(oxetan-3-yl)-3-azabicyclo[3.1.1]heptan-6-yl)methyl)phenyl)carbamate], at human NAMPT, the “AC1.4 Human” value came to 1.47 µM and the half-maximal effective concentration (EC50) amounted to 25.6 µM.
In the case of `CN(Cc1ccc(NC(=O)OCc2ccc(Cl)cc2)cc1)C(=O)c1n[nH]cc1F` [Compound 71, (4-chlorophenyl)methyl N-(4-{[1-(4-fluoro-1H-pyrazol-3-yl)-N-methylformamido]methyl}phenyl)carbamate], at human NAMPT, the “AC1.4 Human” value was 0.61 µM and the EC50 was 2.51 µM.

These data come from patent publication US20240279215A1 (Cytokinetics, Incorporated, priority 2022, published 2024).
